Assay results: publication PMC3938723, “Learning from Host-Defense Peptides: Cationic, Amphipathic Peptoids with Potent Anticancer Activity” (PLoS ONE, 2014)
Non-standard residues stand in square brackets, D forms with d. Residues, ends and D or L forms follow the SMILES beside them. Nspe = C[C@H](NCC(=O)O)c1ccccc1; NhArg = N=C(N)NCCCCNCC(=O)O; Nlys = NCCCCNCC(=O)O

Assays:
OVCAR3 (ovarian cancer) = test: MTS cell viability assay, OVCAR3; type: cell-based
Method: (§1) MCF-7, MCF-7/TxT50 and OVCAR-3 (available in ATCC) were kindly provided by Professor Branimir Sikic's lab at Stanford University, and were cultured in McCoy's 5A media (GIBCO) with 10% FBS and antibiotics. Primary dermal fibroblasts were gifts from Lifeline Cell Technology and were cultured <6 passages according to the protocol Lifeline provides. All the cells were cultured in cell incubators (Thermo Scientific) at 37°C with 5% CO2.
(§2) This assay is a colorimetric method for determining the number of viable cells in proliferation. Aliquots of 100 µl media containing 1×10^4 cells were distributed into each well of a 96-well plate (BD Falcon). The following day, when cell density reaches about ∼40% confluency, the cell media were removed and replaced with serial dilutions of peptoid stocks in culturing media. For peptoid dilutions, peptoid stocks were initially diluted in media at 100 µM and then diluted by half in series using a multichannel pipette, and maintained in 100 µl media for each concentration with triple repeats. After peptoid solutions were transferred onto cells in 96-well plates, cells were incubated at 37°C for certain time periods. Then 20 µl of the CellTiter 96 Aqueous Non-Radioactive cell proliferation assay (Promega) reagent which contains a tetrazolium compound, [3-(4,5-dimethylthiazol-2-yl)-5-(3-carboxymethoxyphenyl)-2-(4-sulfophenyl)-2H-tetrazolium, inner salt; MTS(a)], was added to each well and cells were further incubated for 2 h to metabolize. The absorbance of formazan products were measured at 490 nm in a microplate reader (Molecular Devices). Percentage of cell viability = (A -A testblank)/(A control -A blank)×100, where A is the absorbance of the test well and A control the average absorbance of wells with cells not treated with peptoids. A testblank (media, MTS, and diluted peptoids) and A blank (media and MTS) were background absorbances measured in the absence of cells.
(§3) The activity and selectivity of these peptoids against cancer cells were evaluated in vitro. Their cytotoxicity was tested in three cancer cell lines, MCF-7 (human breast cancer), LNCaP (human prostate cancer), and OVCAR-3 (human ovarian cancer). To estimate the selectivity of these peptoids in vitro, hemolytic activities of some peptoids were cited from previously published work (Table 2 **column), and the MRC-5 cell line (human fibroblasts derived from fetal lung tissues) and primary dermal fibroblasts were also tested as normal cell controls. Briefly, cells were treated with peptoids diluted in culturing media for certain time periods, and then cell viability was measured via MTS assays.

MCF-7 (breast cancer) = test: MTS cell viability assay, MCF-7; type: cell-based
Method: as §1, §2, §3

human red blood cells = details: cited from earlier work
Text: Table 2 Peptoid Cytotoxicity in cancer cell lines and control cells. | column: HC10 (µM) ** || The chain length is believed to influence not only the activity but also modes of action of cationic, amphipathic peptides, [34]. […] Thus we limited the chain length of peptoids to 13 residues at most, and studied 1 9mer which has the same charge-to-length ratio (CTLR) as peptoid ...

[1] = Analytical RP-HPLC elution as relative measure of molecular hydrophobicity; type: physicochemical; details: percentage of acetonitrile at elution, analytic RP-HPLC, C18 column, linear water/acetonitrile (0.1% trifluoroacetic acid) gradient 5%-95% acetonitrile over 30 min
Text: Peptoids were synthesized using an ABI 433A peptide synthesizer (Applied Biosystems, Inc.) on Rink amide MBHA resin (EMD Biosciences, Gibbstown, NJ) using the submonomer protocol, [24]. Briefly, the amine on the nascent chain is bromoacetylated or chloroacetylated followed by SN2 displacement of bromide or chloride by a primary amine to form the side chain. Resin-bound peptoids were then exposed to a mixture of trifluoroacetic acid (TFA): triisopropylsilane: water (95∶2.5∶2.5, volume ratio) for 10 minutes to cleave peptoids from the resin. Crude peptoids were purified by reversed-phase high performance liquid chromatography (RP-HPLC) (Waters Corporation) using a C18 column and a linear acetonitrile/water gradient. A final purity >95% as measured by analytical RP-HPLC (Waters Corporation) was achieved, and the identity of each peptoid was confirmed using electrospray ionization mass spectrometry (ESI/MS). Pexiganan was synthesized by standard Fmoc chemistry on an ABI 433A peptide synthesizer ([…]). Unless indicated otherwise, all reagents were purchased from Sigma Aldrich (St. Louis, MO). Among the submonomers used, Nspe was derived from (S)-N-(1-phenylethyl)amine; Npm from benzylamine ([…]); NHis from histamine (2-[4-imidazolyl]ethylamine); NLeu from isobutylamine; NLys from N-tert-butoxycarbonyl-1,4-butanediamine (CNH Technologies, MA). Guanidinylation of NLys was carried out according to the reported procedure. When NHis was used in the peptoid sequence, chloroacetic acid was used. 5(6)-Carboxyfluorescein was used to label the N-terminus of peptoid 1 [28].
Peptoids were utilized herein as a peptidomimetic scaffold to capture the cationic, amphipathic nature of anticancer peptides, as well as to improve molecular stability and to increase chemical diversity. The design of anticancer peptoids were derived from previous antimicrobial peptoids and were further optimized hererin to improve the activity and selectivity of peptoids against anionic membranes, [24], [25]. […] Several novel variants were designed based on peptoid 1 but with different charges, amphipathicity, length, and helicity to change their activity or selectivity. The sequences of these variants, the solvent composition at RP-HPLC elution as a relative measure of molecular hydrophobicity, molecular net charges and their charge-to-length ratio are summarized in Table 1. […] Pexiganan, a clinically-relevant peptide analog of magainin 2 which was developed for topical treatment for diabetic foot infection, and LL-37, the only known human cathelicidin which is a non-selective antimicrobial peptide, were also tested for comparison.

LNCaP (prostate cancer) = test: MTS cell viability assay, LNCaP; type: cell-based
Method: as §2, §3

[2] = test system: Primary dermal fibroblast; test: MTS cell viability assay, primary dermal fibroblasts; type: cell-based
Method: as §1, §2, §3

[3] = test system: MRC-5 (fetal lung fibroblast); test: MTS cell viability assay, MRC-5; type: cell-based
Method: as §1, §2, §3

[4] = MTS assay, 72 h treatment, media with 10% FBS, max 100 µM tested, triple repeats
[5] = normal cell control, MTS assay, 72 h treatment, media with 10% FBS, max 100 µM tested

| Compound | LC50 OVCAR3 (ovarian cancer) (OVCAR3 (ovarian cancer); 72 h) [µM] | LC50 MCF-7 (breast cancer) (MCF-7 (breast cancer); 72 h) [µM] | HC10 (human red blood cells) [µM] | HPLC elution [1] [% ACN] | LC50 LNCaP (prostate cancer) (LNCaP (prostate cancer); 72 h) [µM] | LC50 Primary dermal fibroblast ([2]; 72 h) [µM] | LC50 MRC-5 (fetal lung fibroblast) ([3]; 72 h) [µM] | LC50 OVCAR3 (ovarian cancer) (OVCAR3 (ovarian cancer); [4]) [µM] | LC50 MCF-7 (breast cancer) (MCF-7 (breast cancer); [4]) [µM] | LC50 LNCaP (prostate cancer) (LNCaP (prostate cancer); [4]) [µM] | LC50 Primary dermal fibroblast [2, 5] [µM] | LC50 MRC-5 (fetal lung fibroblast) [3, 5] [µM] | hemolytic activity (human red blood cells) |
| --- | --- | --- | --- | --- | --- | --- | --- | --- | --- | --- | --- | --- | --- |
| C[C@@H](c1ccccc1)N(CC(N)=O)C(=O)CN(C(=O)CN(CCCCN)C(=O)CN(C(=O)CN(C(=O)CN(CCCCN)C(=O)CN(C(=O)CN(C(=O)CNCCCCN)[C@@H](C)c1ccccc1)[C@@H](C)c1ccccc1)[C@@H](C)c1ccccc1)[C@@H](C)c1ccccc1)[C@@H](C)c1ccccc1 [1 9mer, H-(NLys-Nspe-Nspe)3-NH2] (H-[Nlys][Nspe][Nspe][Nlys][Nspe][Nspe][Nlys][Nspe][Nspe]-NH2) | 34 | 30 | 150 | 60 | 27 | 32 | 40 | – | – | – | – | – | – |
| C[C@@H](c1ccccc1)N(CC(N)=O)C(=O)CN(CCCCN)C(=O)CN(C(=O)CN(C(=O)CN(CCCCN)C(=O)CN(C(=O)CN(C(=O)CN(CCCCN)C(=O)CN(C(=O)CN(C(=O)CNCCCCN)[C@@H](C)c1ccccc1)[C@@H](C)c1ccccc1)[C@@H](C)c1ccccc1)[C@@H](C)c1ccccc1)[C@@H](C)c1ccccc1)[C@@H](C)c1ccccc1 [1 11mer, H-(NLys-Nspe-Nspe)3-NLys-Nspe-NH2] (H-[Nlys][Nspe][Nspe][Nlys][Nspe][Nspe][Nlys][Nspe][Nspe][Nlys][Nspe]-NH2) | 10 | 11 | 103 | 63.5 | 10 | 19 | 24 | – | – | – | – | – | – |
| CC(C)CN(CC(N)=O)C(=O)CN(CCCCN)C(=O)CN(CC(C)C)C(=O)CN(CC(C)C)C(=O)CN(CCCCN)C(=O)CN(CC(C)C)C(=O)CN(CC(C)C)C(=O)CN(CCCCN)C(=O)CN(CC(C)C)C(=O)CN(CC(C)C)C(=O)CNCCCCN [1 11mer-NLeu, H-(NLys-NLeu-NLeu)3-NLys-NLeu-NH2] | >100 | >100 | – | 51 | >100 | >100 | >100 | – | – | – | – | – | – |
| C[C@@H](c1ccccc1)N(CC(N)=O)C(=O)CN(Cc1ccccc1)C(=O)CN(CCCCN)C(=O)CN(Cc1ccccc1)C(=O)CN(Cc1ccccc1)C(=O)CN(CCCCN)C(=O)CN(Cc1ccccc1)C(=O)CN(Cc1ccccc1)C(=O)CN(CCCCN)C(=O)CN(Cc1ccccc1)C(=O)CN(C(=O)CNCCCCN)[C@@H](C)c1ccccc1 [1 achiral-Nspe2, 12, H-NLys-Nspe-Npm-(NLys-Npm-Npm)2-NLys-Npm-Nspe-NH2] | 16 | 12 | – | 62 | 10 | 32 | 21 | – | – | – | – | – | – |
| CC[C@H](C)[C@H](NC(=O)[C@H](CCCCN)NC(=O)[C@H](CCC(=O)O)NC(=O)[C@H](CCCCN)NC(=O)[C@H](CO)NC(=O)[C@H](CCCCN)NC(=O)[C@H](CCCNC(=N)N)NC(=O)[C@H](Cc1ccccc1)NC(=O)[C@H](Cc1ccccc1)NC(=O)[C@H](CC(=O)O)NC(=O)CNC(=O)[C@H](CC(C)C)NC(=O)[C@@H](N)CC(C)C)C(=O)NCC(=O)N[C@@H](CCCCN)C(=O)N[C@@H](CCC(=O)O)C(=O)N[C@@H](Cc1ccccc1)C(=O)N[C@@H](CCCCN)C(=O)N[C@@H](CCCNC(=N)N)C(=O)N[C@H](C(=O)N[C@H](C(=O)N[C@@H](CCC(N)=O)C(=O)N[C@@H](CCCNC(=N)N)C(=O)N[C@H](C(=O)N[C@@H](CCCCN)C(=O)N[C@@H](CC(=O)O)C(=O)N[C@@H](Cc1ccccc1)C(=O)N[C@@H](CC(C)C)C(=O)N[C@@H](CCCNC(=N)N)C(=O)N[C@@H](CC(N)=O)C(=O)N[C@@H](CC(C)C)C(=O)N[C@H](C(=O)N1CCC[C@H]1C(=O)N[C@@H](CCCNC(=N)N)C(=O)N[C@H](C(=O)N[C@@H](CCC(=O)O)C(=O)N[C@@H](CO)C(=O)O)[C@@H](C)O)C(C)C)[C@@H](C)CC)C(C)C)[C@@H](C)CC [LL 37, LL-37, reference compound] | 24 | 21 | – | – | 27 | 26 | 24 | – | – | – | – | – | – |
| C[C@@H](c1ccccc1)N(CC(N)=O)C(=O)CN(C(=O)CN(CCCCNC(=N)N)C(=O)CN(C(=O)CN(C(=O)CN(CCCCNC(=N)N)C(=O)CN(C(=O)CN(C(=O)CN(CCCCNC(=N)N)C(=O)CN(C(=O)CN(C(=O)CNCCCCNC(=N)N)[C@@H](C)c1ccccc1)[C@@H](C)c1ccccc1)[C@@H](C)c1ccccc1)[C@@H](C)c1ccccc1)[C@@H](C)c1ccccc1)[C@@H](C)c1ccccc1)[C@@H](C)c1ccccc1 [Peptoid 1-Nbtg, H-(Nbtg-Nspe-Nspe)4-NH2] (H-[NhArg][Nspe][Nspe][NhArg][Nspe][Nspe][NhArg][Nspe][Nspe][NhArg][Nspe][Nspe]-NH2) | 8 | 5 | – | – | 8 | 8 | 10 | – | – | – | – | – | – |
| CC[C@H](C)[C@H](NC(=O)CN)C(=O)NCC(=O)N[C@@H](CCCCN)C(=O)N[C@@H](Cc1ccccc1)C(=O)N[C@@H](CC(C)C)C(=O)N[C@@H](CCCCN)C(=O)N[C@@H](CCCCN)C(=O)N[C@@H](C)C(=O)N[C@@H](CCCCN)C(=O)N[C@@H](CCCCN)C(=O)N[C@@H](Cc1ccccc1)C(=O)NCC(=O)N[C@@H](CCCCN)C(=O)N[C@@H](C)C(=O)N[C@@H](Cc1ccccc1)C(=O)N[C@H](C(=O)N[C@@H](CCCCN)C(=O)N[C@H](C(=O)N[C@@H](CC(C)C)C(=O)N[C@@H](CCCCN)C(=O)N[C@@H](CCCCN)C(N)=O)[C@@H](C)CC)C(C)C [Pexiganan, reference compound] (H-GIGKFLKKAKKFGKAFVKILKK-NH2) | – | – | 70 | – | – | – | – | 13 | 8 | 6 | 19 | 21 | – |
| H-(NLys-Nspe-Nspe)5-NH2 [peptoid 1 15mer, reference compound] | – | – | – | – | – | – | – | – | – | – | – | – | substantially higher hemolytic activity |
